We go through 33 compounds from US20220073536A1 (Rigel Pharmaceuticals, Inc., priority 2003, published 2022).

SMILES strings stand for the structures. Where only a bound is given, the exact number is not on record here.

In test [1] the test system is cultured human mast cells (CHMC). The test can be described thus: CHMC low cell density ionomycin activation: tryptase assay. It counts as cell-based. The following applies: low cell density, 3 pt, read-out: LD Tryptase, CHMC, Iono, 3 pt.
Test [2] has the same test system. The test can be described thus: CHMC low cell density IgE activation: tryptase assay. The following applies: low cell density, IgE activation. It counts as cell-based. The method, boiled down: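 Low-density CHMC, 1000-1500 cells/well in MT; 1 hr 37 °C; anti-IgE challenge 30 min 37 °C; supernatant tryptase via fluorogenic substrate, 30 min RT.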
Where [3] appears, read: Homo sapiens, Mast cell, 3 pt, read-out: LD Tryptase, CHMC, IgE, 3 pt.
Setting [4] is: Homo sapiens, Mast cell, 8 pt, read-out: LD Tryptase, CHMC, IgE, 8 pt.
The mark [5] stands for this setting: 3 pt, read-out: LD Tryptase, CHMC, IgE, 3 pt.
Setting [6] is: 8 pt, read-out: LD Tryptase, CHMC, IgE, 8 pt.

Turning to `CC(C)Nc1ncc(F)c(N(C)c2ccc3c(c2)OCCO3)n1` [Compound 471, N4-(3,4-Ethylenedioxyphenyl)-5-fluoro-N2-isopropyl-N4-methyl-2,4-pyrimidinediamine], the IC50 is above 10 µM in test [1] (Homo sapiens, Mast cell) and above 10 µM in test [2] (setting [3]).
Take `COc1ccc(Nc2ncc(F)c(Nc3cccc(O)c3)n2)c(OC)n1` [Compound 472]: the IC50 is above 10 µM in test [1] (Homo sapiens, Mast cell) and below 10 µM in test [2] (setting [3]).
The matching figures for `CNC(=O)c1ccc(Nc2ncc(F)c(N(C)c3ccc4c(c3)OCCO4)n2)cc1Cl` [Compound 473, N2-[3-Chloro-4-(N-methylamino)carbonylphenyl]-N4-(3,4-ethylenedioxyphenyl)-5-fluoro-N4-methyl-2,4-pyrimidinediamine]: above 10 µM and below 10 µM.
For `CNC(=O)c1ccc(Nc2ncc(F)c(N(C)c3ccc(OC)c(OC)c3)n2)cc1Cl` [Compound 474, N2-[3-Chloro-4-(N-methylamino)carbonylphenyl]-N4-(3,4-dimethoxyphenyl)-5-fluoro-N4-methyl-2,4-pyrimidinediamine] the same measures were above 10 µM and below 10 µM.
Regarding `CNC(=O)c1cc(Nc2nc(Nc3cc(OC)cc(OC)c3)ncc2F)ccc1Cl` [Compound 475, N4-[4-Chloro-3-(N-methylamino)carbonylphenyl]-N2-(3,5-dimethoxyphenyl)-5-fluoro-2,4-pyrimidinediamine], the IC50 in test [1] (Homo sapiens, Mast cell) was above 10 µM; in test [2] (setting [3]), below 10 µM; in test [2] (setting [4]), below 10 µM.
Regarding `CNC(=O)c1cc(Nc2nc(Nc3cc(C)cc(C)c3)ncc2F)ccc1Cl` [Compound 476, N4-[4-Chloro-3-(N-methylamino)carbonylphenyl]-N2-(3,5-dimethylphenyl)-5-fluoro-2,4-pyrimidinediamine], the IC50 in test [1] (Homo sapiens, Mast cell) is above 10 µM; in test [2] (setting [3]), below 10 µM; in test [2] (setting [4]) it was below 10 µM.
`CNC(=O)COc1cccc(Nc2ncc(F)c(Nc3ccc(Cl)c(C(=O)NC)c3)n2)c1` [Compound 477, N4-[4-Chloro-3-(N-methylamino)carbonylphenyl]-5-fluoro-N2-[3-(N-methylamino)carbonylmethyleneoxyphenyl]-2,4-pyrimidinediamine]: the figures for the IC50 in test [1], in test [2] (setting [5]) and in test [2] (setting [6]) were above 10 µM, below 10 µM and below 10 µM, respectively.
`CNC(=O)c1ccc(Nc2ncc(F)c(Nc3ccc(Cl)c(C(=O)NC)c3)n2)cc1Cl` [Compound 478, N2-[3-Chloro-4-(N-methylamino)carbonylphenyl]-N4-[4-chloro-3-(N-methylamino)carbonylphenyl]-5-fluoro-2,4-pyrimidinediamine]: the IC50 in test [1] (Homo sapiens, Mast cell) was above 10 µM; in test [2] (setting [3]), below 10 µM.
Consider `CNC(=O)c1cc(Nc2ccnc(Nc3ccc4cc[nH]c4c3)n2)ccc1Cl` [Compound 479, N4-[4-Chloro-3-(N-methylamino)carbonylphenyl]-N2-(indol-6-yl)-2,4-pyrimidinediamine], for which the IC50 in test [1] (Homo sapiens, Mast cell) is above 10 µM; in test [2] (setting [3]), below 10 µM.
For `COc1ncc(F)c(N(C)c2ccc3c(c2)OCCO3)n1` [Compound 480] the same measures were above 10 µM and above 10 µM.
Turning to `CNC(=O)c1ccc(Nc2nc(Nc3cc(OC)cc(OC)c3)ncc2F)cc1Cl` [Compound 481], the IC50 in test [1] (Homo sapiens, Mast cell) is above 10 µM; in test [2] (setting [3]) it was below 10 µM; in test [2] (setting [4]), below 10 µM.
As for `CNC(=O)c1ccc(Nc2nc(Nc3cc(C)cc(C)c3)ncc2F)cc1Cl` [Compound 482], the IC50 in test [1] (Homo sapiens, Mast cell) is above 10 µM; in test [2] (setting [3]) it was below 10 µM; in test [2] (setting [4]), below 10 µM.
Turning to `Nc1cccc(Nc2nc(Cl)ncc2F)n1` [Compound 486, N4-(2-Aminopyrid-6-yl)-2-chloro-5-fluoro-4-pyrimidineamine], the IC50 in test [1] (Homo sapiens, Mast cell) was above 10 µM; in test [2] (setting [3]), above 10 µM.
For the compound `CN(c1ccc2c(c1)OCCO2)c1nc(N)ncc1F` [Compound 487, N4-(3,4-Ethylenedioxyphenyl)-5-fluoro-N4-methyl-2,4-pyrimidinediamine], the IC50 in test [1] (Homo sapiens, Mast cell) was above 10 µM; in test [2] (setting [3]), above 10 µM.
In the case of `COc1cc(OC)cc(N(C)c2nc(Cl)ncc2F)c1` [Compound 488], the IC50 is above 10 µM in test [1] (Homo sapiens, Mast cell) and below 10 µM in test [2] (setting [3]).
For `CCOC(=O)c1cc2cccc(Nc3ncc(F)c(NCCO)n3)c2[nH]1` [Compound 489] the same measures were above 10 µM and above 10 µM.
For `COc1ccc(N(C)c2nc(Cl)ncc2F)c(OC)n1` [Compound 490] the same measures were above 10 µM and above 10 µM.
With `CNS(=O)(=O)c1ccc(Nc2ncc(F)c(Nc3ccc4c(c3)OCCO4)n2)cc1OC` [Compound 493, N4-(3,4-Ethylenedioxyphenyl)-5-fluoro-N2-[4-(N-methylamino)sulfonyl-3-methoxyphenyl]-2,4-pyrimidinediamine], the IC50 is above 10 µM in test [1] (Homo sapiens, Mast cell); below 10 µM in test [2] (setting [3]); below 10 µM in test [2] (setting [4]).
With `CNS(=O)(=O)c1ccc(Nc2ncc(F)c(Nc3ccc(OC)c(OC)c3)n2)cc1OC` [Compound 494, N4-(3,4-Dimethoxyphenyl)-5-fluoro-N2-[3-methoxyphenyl-4-(N-methylamino)sulfonyl]-2,4-pyrimidinediamine], the IC50 was above 10 µM in test [1], below 10 µM in test [2] (setting [5]) and below 10 µM in test [2] (setting [6]).
For `CNS(=O)(=O)c1ccc(Nc2ncc(F)c(Nc3cc(OC)cc(OC)c3)n2)cc1OC` [Compound 495, N4-(3,5-Dimethoxyphenyl)-5-fluoro-N2-[3-methoxyphenyl-4-(methylamino)sulfonyl]-2,4-pyrimidinediamine], the IC50 in test [1] is above 10 µM; in test [2] (setting [5]) it was below 10 µM.
Turning to `CNS(=O)(=O)c1ccc(Nc2ncc(F)c(Nc3ccc4c(c3)NC(=O)C(C)(C)O4)n2)cc1OC` [Compound 496, N4-(2,2-Dimethyl-3-oxo-4H-benz[1,4]oxazin-6-yl)-5-fluoro-N2-[3-methoxyphenyl-4-(methylamino)sulfonyl]-2,4-pyrimidinediamine], the IC50 in test [1], in test [2] (setting [5]) and in test [2] (setting [6]) was below 10 µM throughout.
As to `CNS(=O)(=O)c1ccc(Nc2ncc(F)c(Nc3ccc(Cl)c(C(F)(F)F)c3)n2)cc1OC` [Compound 497, N4-(4-Chloro-3-trifluoromethylphenyl)-5-fluoro-N2-[3-methoxyphenyl-4-(methylamino)sulfonyl]-2,4-pyrimidinediamine], the results for the IC50 in test [1], in test [2] (setting [5]) and in test [2] (setting [6]) were above 10 µM, below 10 µM and below 10 µM, respectively.
Take `CNS(=O)(=O)c1ccc(Nc2ncc(F)c(Nc3ccc(OC(F)(F)F)c(Cl)c3)n2)cc1OC` [Compound 498, N4-(3-Chloro-4-trifluoromethoxyphenyl)-5-fluoro-N2-[4-(3-methoxyphenyl-N-methylamino)sulfonyl]-2,4-pyrimidinediamine]: the values for the IC50 in test [1], in test [2] (setting [5]) and in test [2] (setting [6]) were above 10 µM, below 10 µM and below 10 µM, respectively.
For `CNS(=O)(=O)c1ccc(Nc2ncc(F)c(Nc3cccc(O)c3)n2)cc1OC` [Compound 499, 5-Fluoro-N4-(3-hydroxyphenyl)-N2-[3-methoxyphenyl-4-(N-methylamino)sulfonyl]-2,4-pyrimidinediamine], the results for the IC50 in test [1], in test [2] (setting [5]) and in test [2] (setting [6]) were above 10 µM, below 10 µM and below 10 µM, respectively.
`CNc1ncc(F)c(N(C)c2ccc(OC)nc2OC)n1` [Compound 500]: the IC50 in test [1] (Homo sapiens, Mast cell) is above 10 µM; in test [2] (setting [3]), above 10 µM.
In the case of `CNc1ncc(F)c(N(C)c2cc(Cl)c(OC)c(Cl)c2)n1` [Compound 501], the IC50 in test [1] (Homo sapiens, Mast cell) was above 10 µM; in test [2] (setting [3]), above 10 µM.
Consider `CNS(=O)(=O)c1ccc(Nc2nc(Cl)ncc2F)cc1OC` [Compound 502, 2-Chloro-5-fluoro-N4-[4-(N-methylamino)sulfonyl-3-methoxyphenyl]-2,4-pyrimidineamine], for which the IC50 in test [1] and in test [2] (setting [5]) was above 10 µM throughout.
In the case of `COc1cc(Nc2ncc(F)c(Nc3ccc(OCCO)nc3)n2)cc(OC)c1` [Compound 503, N2-(3,5-Dimethoxyphenyl)-5-fluoro-N4-[2-(2-hydroxyethyleneoxy)pyrid-5-yl]-2,4-pyrimidinediamine], the figures for the IC50 in test [1], in test [2] (setting [5]) and in test [2] (setting [6]) were above 10 µM, below 10 µM and below 10 µM, respectively.
In the case of `Cc1cc(C)cc(Nc2ncc(F)c(Nc3ccc(OCCO)nc3)n2)c1` [Compound 504, N2-(3,5-Dimethylphenyl)-5-fluoro-N4-[2-(2-hydroxyethyleneoxy)pyrid-5-yl]-2,4-pyrimidinediamine], the IC50 was above 10 µM in test [1], below 10 µM in test [2] (setting [5]) and below 10 µM in test [2] (setting [6]).
For `COc1ccc(Nc2ncc(F)c(Nc3ccc(OCCO)nc3)n2)cc1Cl` [Compound 505, N2-(3-Chloro-4-methoxyphenyl)-5-fluoro-N4-[2-(2-hydroxyethyleneoxy)pyrid-5-yl]-2,4-pyrimidinediamine], the IC50 in test [1] was above 10 µM; in test [2] (setting [5]) it was below 10 µM; in test [2] (setting [6]), below 10 µM.
On to `C=CCNc1ncc(F)c(N(C)c2ccc3c(c2)OCCO3)n1` [Compound 506, N2-Allyl-N4-(3,4-ethylenedioxyphenyl)-5-fluoro-N4-methyl-2,4-pyrimidinediamine], for which the IC50 in test [1] (Homo sapiens, Mast cell) was above 10 µM; in test [2] (setting [3]) it was above 10 µM.
For `CNS(=O)(=O)c1ccc(Nc2nc(Nc3cc(OC)cc(OC)c3)ncc2F)cc1OC` [Compound 507], the IC50 in test [1] (Homo sapiens, Mast cell) was above 10 µM; in test [2] (setting [3]), below 10 µM; in test [2] (setting [4]), below 10 µM.
Regarding `COc1cc(Nc2ncc(F)c(Nc3ccc(C)cn3)n2)cc(OC)c1` [Compound 508, N2-(3,5-Dimethoxyphenyl)-5-fluoro-N4-(3-methylpyrid-6-yl)-2,4-pyrimidinediamine], the IC50 is above 10 µM in test [1] (Homo sapiens, Mast cell); below 10 µM in test [2] (setting [3]); below 10 µM in test [2] (setting [4]).
